Results as given in patent US8138173B2, “Pyrazolo[3,4-C]quinolines, pyrazolo[3,4-C]naphthyridines, analogs thereof, and methods” (3M Innovative Properties Company, priority 2005, dated 2012).
Where a name gives a salt, the structure may show the parent alone.

| SMILES | melting point |
| --- | --- |
| CC(C)Cc1c2c(nn1C)c(O)nc1ccccc12 [Example 27, 1-Isobutyl-2-methyl-2H-pyrazolo[3,4-c]quinolin-4-ol] | > 280 °C |
| CCCn1nc2c(Cl)nc3ccccc3c2c1C [Example 1, 4-Chloro-1-methyl-2-propyl-2H-pyrazolo[3,4-c]quinoline] | 145 to 147 °C |
| CCn1nc2c(OC)nc3ccccc3c2c1CO [Example 5, (2-Ethyl-4-methoxy-2H-pyrazolo[3,4-c]quinolin-1-yl)methanol] | 219 to 220 °C |
| CC(C)(C)n1nc2c(=O)[nH]c3ccccc3c2c1CO [Example 26, 2-tert-Butyl-1-(hydroxymethyl)-2,5-dihydro-4H-pyrazolo[3,4-c]quinolin-4-one] | 295 to 297 °C |
| CC(C)(C)OC(=O)N1CCC(CCc2c3c(nn2C(C)(C)C)c(=O)[nH]c2ccccc23)CC1 [Example 25, tert-Butyl 4-[2-(2-tert-butyl-4-oxo-4,5-dihydro-2H-pyrazolo[3,4-c]quinolin-1-yl)ethyl]piperidine-1-carboxylate] | 223 to 225 °C |
| CCOC(=O)Cc1c2c(nn1CC)c(=O)[nH]c1ccccc12 [Example 17, Ethyl (2-ethyl-4-oxo-4,5-dihydro-2H-pyrazolo[3,4-c]quinolin-1-yl)acetate] | 233 to 235 °C |
| O=C(Cc1c2c(nn1-c1ccccc1)c(Cl)nc1ccccc12)N1CCN(Cc2ccccc2)CC1 | 210.5 to 211.5 °C |
| O=c1[nH]c2ccccc2c2c(CCO)n(-c3ccccc3)nc12 [Example 20, 1-(2-Hydroxyethyl)-2-phenyl-2,5-dihydro-4H-pyrazolo[3,4-c]quinolin-4-one] | 310 to 312 °C |
| CCCn1nc2c(O)nc3ccccc3c2c1CC(C)(C)O [Example 29, 1-(2-Hydroxy-2-methylpropyl)-2-propyl-2H-pyrazolo[3,4-c]quinolin-4-ol] | 294 to 296 °C |
| O=c1[nH]c2ccccc2c2c(C(O)CC3CCCCC3)n(-c3ccccc3)nc12 (stereo not shown) [Example 10, 1-(2-Cyclohexyl-1-hydroxyethyl)-2-phenyl-2,5-dihydro-4H-pyrazolo[3,4-c]quinolin-4-one] | 254 to 259 °C |
| CCCc1c2c(nn1-c1ccccc1)c(=O)[nH]c1ccccc12 [Example 28, 2-Phenyl-1-propyl-2,5-dihydro-4H-pyrazolo[3,4-c]quinolin-4-one] | > 300 °C |
| Cc1c2c(nn1-c1ccccc1)c(=O)[nH]c1ccccc12 [Example 11, 1-Methyl-2-phenyl-2,5-dihydro-4H-pyrazolo[3,4-c]quinolin-4-one] | > 250 °C |
| Cc1c2c(nn1-c1ccccc1)c(Cl)nc1ccccc12 [Example 12, 4-Chloro-1-methyl-2-phenyl-2H-pyrazolo[3,4-c]quinoline] | 208 to 209 °C |
| CCc1c2c(nn1-c1ccccc1)c(Cl)nc1ccccc12 [Example 15, 4-Chloro-1-ethyl-2-phenyl-2H-pyrazolo[3,4-c]quinoline] | 207 to 209 °C |
| Cc1c2c(cnc3ccccc32)nn1-c1ccccc1 [Example 13, 1-Methyl-2-phenyl-2H-pyrazolo[3,4-c]quinoline] | 128 to 130 °C |
| CCCCc1c2c(nn1-c1ccccc1)c(Cl)nc1ccccc12 [Example 16, 1-Butyl-4-chloro-2-phenyl-2H-pyrazolo[3,4-c]quinoline] | 239 to 243 °C |
| O=c1[nH]c2ccccc2c2c(CCC3CCNCC3)n(-c3ccccc3)nc12 [Example 6, 2-Phenyl-1-(2-piperidin-4-ylethyl)-2,5-dihydro-4H-pyrazolo[3,4-c]quinolin-4-one] | 250 to 252 °C |
| CCOC(=O)Cc1c2c(nn1-c1ccccc1)c(=O)[nH]c1ccccc12 [Example 18, Ethyl (4-oxo-2-phenyl-4,5-dihydro-2H-pyrazolo[3,4-c]quinolin-1-yl)acetate] | 301 to 303 °C |
| CC(C)(C)OC(=O)N1CCC(CC(O)c2c3c(nn2-c2ccccc2)c(=O)[nH]c2ccccc23)CC1 (stereo not shown) [Example 8, tert-Butyl 4-[2-hydroxy-2-(4-oxo-2-phenyl-4,5-dihydro-2H-pyrazolo[3,4-c]quinolin-1-yl)ethyl]piperidine-1-carboxylate] | 253 to 254 °C |
| O=c1[nH]c2ccccc2c2c(CCN3CCN(Cc4ccccc4)CC3)n(-c3ccccc3)nc12 [Example 24, 1-[2-(4-Benzylpiperazin-1-yl)ethyl]-2-phenyl-2,5-dihydro-4H-pyrazolo[3,4-c]quinolin-4-one] | 211 to 212.5 °C |
| Clc1nc2ccccc2c2c(CCN3CCN(Cc4ccccc4)CC3)n(-c3ccccc3)nc12 [Example 23, 1-[2-(4-Benzylpiperazin-1-yl)ethyl]-4-chloro-2-phenyl-2H-pyrazolo[3,4-c]quinoline] | 75 to 77 °C |
| CCc1c2c(nn1-c1ccccc1)c(=O)[nH]c1ccccc12 [Example 14, 1-Ethyl-2-phenyl-2,5-dihydro-4H-pyrazolo[3,4-c]quinolin-4-one] | 331 to 334 °C |
| O=c1[nH]c2ccccc2c2c(C(O)CC3CCNCC3)n(-c3ccccc3)nc12 (stereo not shown) [Example 9, 1-(1-Hydroxy-2-piperidin-4-ylethyl)-2-phenyl-2,5-dihydro-4H-pyrazolo[3,4-c]quinolin-4-one] | 258 to 261 °C |
| Clc1nc2ccccc2c2c(CCC3CCNCC3)n(-c3ccccc3)nc12 (as salt: HCl) [Example 7, 4-Chloro-2-phenyl-1-(2-piperidin-4-ylethyl)-2H-pyrazolo[3,4-c]quinoline] | 194 °C |
| O=C(Cc1c2c(nn1-c1ccccc1)c(=O)[nH]c1ccccc12)N1CCN(Cc2ccccc2)CC1 | 283 to 285 °C |
